Experimental data as given in patent US20230011869A1 (Hoffmann-La Roche Inc., priority 2018, published 2023).
Counter-ions that a name gives are not always drawn. Like-named read-outs stand apart in the source and are kept apart here.

Tested on: Acinetobacter baumannii ATCC17978
Experiment: Antimicrobial susceptibility testing: 90% growth inhibitory concentration (IC90) determination, Iso-Sensitest broth
Type: cell-based
Outline: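 A. baumannii ATCC17978 grown in Iso-Sensitest broth across 10 compound concentrations at 35±2 °C.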

[1] = 90% growth inhibitory concentration, Acinetobacter baumannii ATCC17978, Iso-Sensitest broth, OD 600 nm over 16 h, read-out: ATCC17978 IC90
[2] = Acinetobacter baumannii, ATCC17978, 16 h, read-out: ATCC17978 IC90, 90% growth inhibitory concentration, Acinetobacter baumannii ATCC17978, Iso-Sensitest broth, OD 600 nm over 16 h

Row | IC90 [1] [µM] | Structure (SMILES) | IC90 [2] [µM]
1 | 1.1 | COc1ccc(-c2cnc3c(Nc4ccc(C(=O)N5CC[C@@H](N)[C@@H](O)C5)c(C)c4)nccn23)cc1F [Example 423, [(3S,4R)-4-amino-3-hydroxypiperidin-1-yl]-[4-[[3-(3-fluoro-4-methoxyphenyl)imidazo[1,2-a]pyrazin-8-yl]amino]-2-methylphenyl]methanone; hy-drochloride] | –
2 | 1.2 | COc1ccc(-c2cnc3c(Nc4ccc(C(=O)N5CCNC(C6CC6)C5)c(C)c4)nccn23)cc1F (centres unmarked) [Example 424, (3-cyclopropylpiperazin-1-yl)-[4-[[3-(3-fluoro-4-methoxyphenyl)imidazo[1,2-a]pyrazin-8-yl]amino]-2-methylphenyl]methanone; hy-drochloride] | –
3 | 1.2 | COc1ccc(-c2cnc3c(Nc4ccc(C(=O)N5CCN(C6CC6)CC5)c(C)c4)nccn23)cc1F [Example 426, (4-cyclopropylpiperazin-1-yl)-[4-[[3-(3-fluoro-4-methoxyphenyl)imidazo[1,2-a]pyrazin-8-yl]amino]-2-methylphenyl]methanone] | –
4 | 1.2 | COc1ccc(-c2cnc3c(Nc4ccc(C(=O)N5CCC(C(=O)NCc6ccc(C(=O)O)cc6)CC5)c(C)c4)nccn23)cc1F [Example 427, 4-[[[1-[4-[[3-(3-fluoro-4-methoxyphenyl)imidazo[1,2-a]pyrazin-8-yl]amino]-2-methylbenzoyl]piperidine-4-carbonyl]amino]methyl]ben-zoic acid] | –
5 | 1.5 | COc1ccc(-c2cnc3c(Nc4ccc(C(=O)N5CCC(C(=O)N(C)C[C@H](O)[C@@H](O)[C@H](O)[C@H](O)CO)CC5)c(C)c4)nccn23)cc1F [Example 432, 1-[4-[[3-(3-fluoro-4-methoxyphenyl)imidazo[1,2-a]pyrazin-8-yl]amino]-2-methylbenzoyl]-N-methyl-N-[(2S,3R,4R,5R)-2,3,4,5,6-pentahydroxyhexyl]piperidine-4-carboxamide] | –
6 | 1.6 | COc1ccc(-c2cnc3c(Nc4ccc(C(=O)N5CCC(C(=O)NC6(C(=O)O)CC6)CC5)c(C)c4)nccn23)cc1F [Example 433, 1-[[1-[4-[[3-(3-fluoro-4-methoxyphenyl)imidazo[1,2-a]pyrazin-8-yl]amino]-2-methylbenzoyl]piperidine-4-carbonyl]amino]cyclopropane-1-carboxylic acid] | –
7 | 1.8 | COc1ccc(-c2cnc3c(Nc4ccc(C(=O)N5CC6(C5)CN(C5CC5)C6)c(C)c4)nccn23)cc1F [Example 434, (6-cyclopropyl-2,6-diazaspiro[3.3]heptan-2-yl)-[4-[[3-(3-fluoro-4-methoxyphenyl)imidazo[1,2-a]pyrazin-8-yl]amino]-2-methylphenyl]methanone] | –

The remaining lines, values behind:

Row | Structure (SMILES) | IC90 [1] [µM] | IC90 [2] [µM]
8 | COc1ccc(-c2cnc3c(Nc4ccc(C(=O)N5CCN[C@H](CO)C5)c(C)c4)nccn23)cc1F [Example 419, [4-[[3-(3-fluoro-4-methoxyphenyl)imidazo[1,2-a]pyrazin-8-yl]amino]-2-methylphenyl]-[(3S)-3-(hydroxymethyl)piperazin-1-yl]methanone] | 1 | –
9 | COc1ccc(-c2cnc3c(Nc4ccc(C(=O)N5CCC(CNC(CN)C(=O)O)CC5)c(C)c4)nccn23)cc1 (centres unmarked) [Example 420, 3-amino-2-[[1-[4-[[3-(4-methoxyphenyl)imidazo[1,2-a]pyrazin-8-yl]amino]-2-methylbenzoyl]piperidin-4-yl]methylamino]propanoic acid; formic acid] | – | 1.1
10 | COc1ccc(-c2cnc3c(Nc4ccc(C(=O)N5CC6(CCN6)C5)c(C)c4)nccn23)cc1F [Example 421, 1,6-diazaspiro[3.3]heptan-6-yl-[4-[[3-(3-fluoro-4-methoxyphenyl)imidazo[1,2-a]pyrazin-8-yl]amino]-2-methylphenyl]methanone; 2,2,2-trifluoroacetic acid] | – | 1.1
11 | COc1ccc(-c2cnc3c(Nc4ccc(C(=O)N5CCNC(CO)C5)c(C)c4)nccn23)cc1F (centres unmarked) [Example 422, [4-[[3-(3-fluoro-4-methoxyphenyl)imidazo[1,2-a]pyrazin-8-yl]amino]-2-methylphenyl]-[3-(hydroxymethyl)piperazin-1-yl]methanone] | 1.1 | –
12 | COc1ccc(-c2cnc3c(Nc4ccc(C(=O)N5C[C@@H](O)[C@H](O)C5)c(C)c4)nccn23)cc1F [Example 425, [(3R,4R)-3,4-dihydroxypyrrolidin-1-yl]-[4-[[3-(3-fluoro-4-methoxyphenyl)imidazo[1,2-a]pyrazin-8-yl]amino]-2-methylphenyl]methanone] | 1.2 | –
13 | Cc1cc(Nc2nccn3c(-c4ccc(O)c(F)c4)cnc23)ccc1C(=O)N1CCC(CN)CC1 [Example 428, [4-(aminomethyl)piperidin-1-yl]-[4-[[3-(3-fluoro-4-hydroxyphenyl)imidazo[1,2-a]pyrazin-8-yl]amino]-2-methylphenyl]methanone] | 1.3 | –
14 | COc1ccc(-c2cnc3c(Nc4ccc(C(=O)N5CCC(CNCC(=O)O)CC5)c(C)c4)nccn23)cc1 [Example 431, formic acid; 2-[[1-[4-[[3-(4-methoxyphenyl)imidazo[1,2-a]pyrazin-8-yl]amino]-2-methylbenzoyl]piperidin-4-yl]methylamino]acetic acid] | – | 1.5
15 | COc1ccc(-c2cnc3c(Nc4ccc(C(=O)N5CCC(CNCCC(=O)O)CC5)c(C)c4)nccn23)cc1 [Example 435, 3-[[1-[4-[[3-(4-methoxyphenyl)imidazo[1,2-a]pyrazin-8-yl]amino]-2-methylbenzoyl]piperidin-4-yl]methylamino]propanoic acid] | 3.2 | –
16 | COc1ccc(-c2cnc3c(Nc4ccc(C(=O)N5CCN(C(=O)N6CCN[C@@H](C(=O)O)C6)CC5)c(C)c4)nccn23)c(F)c1F [Example 436, (2R)-4-[4-[4-[[3-(2,3-difluoro-4-methoxyphenyl)imidazo[1,2-a]pyrazin-8-yl]amino]-2-methylbenzoyl]piperazine-1-carbonyl]piperazine-2-carboxylic acid; formic acid] | – | 0.76
17 | Cc1cc(Nc2nccn3c(-c4ccc(OC(F)F)cc4)cnc23)ccc1C(=O)N1CCN(C(=O)[C@@H](N)Cc2cnc[nH]2)CC1 [Example 437, (2S)-2-amino-1-[4-[4-[[3-[4-(difluoromethoxy)phenyl]imi-dazo[1,2-a]pyrazin-8-yl]amino]-2-methylbenzoyl]piperazin-1-yl]-3-(1H-imidazol-5-yl)propan-1-one; hydrochloride] | – | 0.77
18 | Cc1cc(Nc2nccn3c(-c4ccc(OC(F)F)cc4)cnc23)ccc1C(=O)N1CCN(C(=O)[C@@H]2CNCCN2)CC1 [Example 441, [4-[[3-[4-(difluoromethoxy)phenyl]imi-dazo[1,2-a]pyrazin-8-yl]amino]-2-methylphenyl]-[4-[(2S)-piperazine-2-carbonyl]piperazin-1-yl]methanone; hydrochloride] | – | 1.2
19 | Cc1cc(Nc2nccn3c(-c4ccc(OCC#N)c(F)c4F)cnc23)ccc1C(=O)N1CCN(C(=O)N2CCN[C@H](C(=O)O)C2)CC1 [Example 442, (2S)-4-[4-[4-[[3-[4-(cyanomethoxy)-2,3-difluorophenyl]imidazo[1,2-a]pyrazin-8-yl]amino]-2-methylbenzoyl]piperazine-1-carbonyl]piperazine-2-carboxylic acid] | 1.2 | –
20 | COC(=O)CC[C@H](N)C(=O)N1CCN(C(=O)c2ccc(Nc3nccn4c(-c5ccc(OC(F)F)cc5)cnc34)cc2C)CC1 [Example 444, methyl (4S)-4-amino-5-[4-[4-[[3-[4-(difluoromethoxy)phenyl]imi-dazo[1,2-a]pyrazin-8-yl]amino]-2-methylbenzoyl]piperazin-1-yl]-5-oxopentanoate; hydrochloride] | – | 1.9
